Test results as given in patent US20250188151A1, “C-JUN ANTAGONIST PEPTIDES” (The University of Bath, priority 2022, published 2025).
Bridge positions count the residues as written; N and C are the ends. Peptide text beside a SMILES is read from it.

Key:
cJun/TRE DNA interaction = molecular target: T1, cJun/TRE DNA interaction (Homo sapiens, UniProt P05412, S292Y); test: CD cJun/TRE DNA antagonism (shift of TRE DNA peak at ~281 nm, Hill fit); assay type: biochemical
T1 construct: The same 60 amino acid c-Jun bZIP construct was used for all experiments; His-SUMO (N, cleaved yes); made in house; host or cells: E. coli
Text: Briefly, in TBS the coding region for the essential gene dihydrofolate reductase (DHFR) is mutated to incorporate TRE sites so that introduction of c-Jun to this gene inside E. coli produces a transcriptional block that abrogates cell proliferation. The TRE site-bound c-Jun molecules sterically prevent RNA polymerase transcribing the essential gene and this can only be restored upon introduction of an effective c-Jun/TRE antagonist. Consequently, the survival of a particular cell is controlled by the ability of a peptide library member to remove the c-Jun transcriptional block and therefore to restore DHFR activity. TBS thus facilitates the identification of therapeutically valuable sequences. Further details for the TBS assay are provided in WO2020128015, which is incorporated herein by reference in its entirety. […] The TRE-DNA construct produces a positive CD peak at ˜281 nm, which decreases in intensity upon c-Jun binding. […] This method allows for the calculation of an IC50 value by fitting the titration data to a Hill equation. In some embodiments, the c-Jun antagonist is able to inhibit the DNA-binding activity of c-Jun within 10-fold of the ability of HingeW to inhibit the DNA-binding activity of c-Jun (e.g. the c-Jun antagonist has a reduced ability to inhibit the DNA-binding activity of c-Jun that is within 10-fold of that determined for HingeW). In some embodiments, the c-Jun antagonist is able to inhibit the DNA-binding activity of c-Jun within 9-fold, preferably within 8-fold, more preferably within 7-fold, even more preferably within 6-fold, yet more preferably within 5-fold of the ability of HingeW to inhibit the DNA-binding activity of c-Jun. The ability of the c-Jun antagonist and HingeW to inhibit the DNA-binding activity may be measured using the TBS assay (e.g. by quantifying the number of colonies) or by determining the IC50 using a circular dichroism assay described herein. Optionally, the c-Jun antagonist may have this activity when cross-linked. Methods for cross-linking peptides are described in more detail below.
Therefore, the acidic domain was the initial focus for optimisation. 1 was iteratively truncated (2-6) to investigate the effect on c-Jun binding and c-Jun/TRE DNA antagonism. […] Thermal denaturation experiments were then used to determine the Tm of peptide-c-Jun heterodimers, which was used as an approximate measure of target engagement. CD was also used to investigate the ability of the functional activity of peptides in antagonising the c-Jun/TRE DNA interaction. The TRE-DNA construct used produces a positive CD peak at ˜281 nm (no c-Jun absorbance at this wavelength allows for direct measurement of DNA upon binding) which decreases in intensity upon c-Jun binding. […] This allowed for the calculation of an IC50 value by fitting the titration data to a Hill equation. […] The same 60 amino acid c-Jun bZIP construct was used for all experiments, regardless of antagonist peptide length.

cJun bZIP = cJun bZIP (Homo sapiens, UniProt P05412, S292Y); test: CD spectra and thermal denaturation of peptide/cJun heterodimers; settings: peptide (5 μM)/c-Jun (5 μM) heterodimer; Table 6
Procedure: (§1) Circular Dichroism (CD): An Applied Photophysics Chirascan was used for CD measurements, with a 200 μL sample in a 1 mm path length CD cell. Protein/DNA samples were suspended in 150 mM potassium phosphate, 150 mM potassium fluoride and 5 mM TCEP at pH 7.4 and were equilibrated for 30 minutes before measurement. […] These scans were averaged and converted to molar residue ellipticities (MRE). Thermal denaturation experiments were performed by measuring the ellipticity at 222 nm over a 1 to 90° C. gradient at 1° C. increments. Post-melt scans at 20° C. confirmed the transitions were reversible as they overlaid within 10% of the pre-melt scan.
(§2) Circular Dichroism (CD): An Applied Photophysics Chirascan was used for CD measurements, with a 200 μL sample in a 1 mm path length CD cell. Protein/DNA samples were suspended in 150 mM potassium phosphate, 150 mM potassium fluoride and 5 mM TCEP at pH 7.4 and were equilibrated for 30minutes before measurement. […] Thermal denaturation experiments were performed by measuring the ellipticity at 222 nm over a 1 to 90° C. gradient at 1° C. increments. Post-melt scans at 20° C. confirmed the transitions were reversible as they overlaid within 10% of the pre-melt scan.
(§3) Peptide helicity was determined by quantifying the CD signal at 222 nm of peptide only samples. Thermal denaturation experiments were then used to determine the Tm of peptide-c-Jun heterodimers, which was used as an approximate measure of target engagement. […] The same 60 amino acid c-Jun bZIP construct was used for all experiments, regardless of antagonist peptide length.

[1] = CD spectra and thermal denaturation of peptide-only samples (helicity, homodimer Tm); settings: for change in fraction helicity from lactamisation: cyclised vs its linear form
Procedure: as §1, §2, §3

cJun = cJun (Homo sapiens, UniProt P05412, S292Y); test: Isothermal titration calorimetry, Example 2 (PEAQ-ITC); assay type: binding; design: The same 60 amino acid c-Jun bZIP construct was used for all experiments; His-SUMO (N, cleaved yes); made in house; host or cells: E. coli; settings: ITC; for Stoichiometry, n: c-Jun-peptide interaction
Procedure: 2 μL injections of antagonist peptide at 25-200 μM were injected into the cell containing cJun at 2.5-20 μM. Software was used to record and analyse the heat change upon addition. Control experiments involved the injection of the antagonist peptide sample into the cell containing ITC buffer alone to determine the heat of dilution which was subtracted. The resulting binding data were fit to a one site binding model to extract the enthalpy change of binding (ΔH) and the equilibrium binding constant (KD), from which the free energy change of binding (ΔG) and the entropy change of binding (ΔS) was calculated (Wiseman et al., 1989). Thermodynamic parameters are presented as an average of two independent experiments with errors given as one standard deviation.

Compound: CC[C@H](C)[C@H](NC(=O)[C@H](CCC(=O)O)NC(=O)[C@H](CCCCN)NC(=O)[C@H](CCCNC(=N)N)NC(=O)[C@H](CC(C)C)NC(=O)[C@H](C)NC(=O)[C@H](Cc1ccc(O)cc1)NC(=O)[C@H](CC(N)=O)NC(=O)[C@H](CCCNC(=N)N)NC(=O)[C@H](CCC(=O)O)NC(=O)[C@H](CCC(=O)O)NC(=O)[C@H](CC(C)C)NC(=O)[C@H](CCC(N)=O)NC(=O)[C@H](CCC(=O)O)NC(=O)[C@@H](NC(=O)[C@H](CCC(=O)O)NC(=O)[C@H](CCC(=O)O)NC(=O)[C@H](CCC(=O)O)NC(=O)[C@H](CC(C)C)NC(=O)[C@@H](NC(=O)[C@H](CC(=O)O)NC(=O)[C@H](CCC(=O)O)NC(=O)[C@H](CCC(=O)O)NC(=O)[C@@H](NC(=O)[C@@H](NC(=O)[C@H](CC(C)C)NC(C)=O)C(C)C)C(C)C)C(C)C)[C@@H](C)CC)C(=O)N[C@@H](CCC(=O)O)C(=O)N[C@@H](CC(=O)O)C(=O)N[C@@H](CC(C)C)C(=O)N[C@@H](CCC(N)=O)C(=O)N[C@H]1CCCCNC(=O)C[C@@H](C(=O)N[C@@H](CC(C)C)C(N)=O)NC(=O)[C@H](CCC(=O)O)NC(=O)[C@H](CC(C)C)NC(=O)[C@H](CCC(N)=O)NC1=O [Peptide 10] (Ac-LVVEEDVLEEEIEQLEERNYALRKEIEDLQKQLEDL-NH2; lactam 31-35)
- fold increase in antagonism relative to the linear counterpart 5 (cJun/TRE DNA interaction; ratio of CD IC50): 1.9 fold
- Tm (° C.) (cJun bZIP): 68.3 ± 0.9 °C

Compound: CC[C@H](C)[C@@H]1NC(=O)[C@H](CCC(=O)O)NC(=O)[C@@H](NC(=O)[C@H](CCCNC(=N)N)NC(=O)[C@H](CC(C)C)NC(=O)[C@H](C)NC(=O)[C@H](Cc2ccc(O)cc2)NC(=O)[C@H](CC(N)=O)NC(=O)[C@H](CCCNC(=N)N)NC(=O)[C@H](CCC(=O)O)NC(=O)[C@H](CCC(=O)O)NC(=O)[C@H](CC(C)C)NC(=O)[C@H](CCC(N)=O)NC(=O)[C@H](CCC(=O)O)NC(=O)[C@@H](NC(=O)[C@H](CCC(=O)O)NC(=O)[C@H](CCC(=O)O)NC(=O)[C@H](CCC(=O)O)NC(=O)[C@H](CC(C)C)NC(=O)[C@@H](NC(=O)[C@H](CC(=O)O)NC(=O)[C@H](CCC(=O)O)NC(=O)[C@H](CCC(=O)O)NC(=O)[C@@H](NC(=O)[C@@H](NC(=O)[C@H](CC(C)C)NC(=O)[C@H](CCC(=O)O)NC(=O)[C@H](CCC(=O)O)NC(=O)[C@H](C)NC(=O)[C@H](CCC(=O)O)NC(C)=O)C(C)C)C(C)C)C(C)C)[C@@H](C)CC)CCCCNC(=O)C[C@@H](C(=O)N[C@@H](CC(C)C)C(=O)N[C@@H](CCC(N)=O)C(N)=O)NC(=O)[C@H](CCC(=O)O)NC1=O [Peptide 29] (Ac-EAEELVVEEDVLEEEIEQLEERNYALRKEIEDLQ-NH2; lactam 28-32)
- fold reduction in cJun/TRE antagonism relative to 1 (cJun/TRE DNA interaction; ratio of CD IC50): 10.4 fold
- Tm (° C.) (cJun bZIP): 57.2 ± 0.4 °C

Compound: Ac-LEKEAEELVVEEDVLEEEIEQLEERNYALRKEIEDLQKQLEKL-NH2 [Peptide 3]
- fold reduction in antagonism relative to 2 (cJun/TRE DNA interaction; ratio of CD IC50): 2 fold
- Tm (° C.) (cJun bZIP): 67.9 ± 0.9 °C

Compound: Ac-EAEELVVEEDVLEEEIEQLEERNYALRKEIEDL-NH2 [Peptide 25]
- fold reduction in antagonism relative to 4 (cJun/TRE DNA interaction; ratio of CD IC50): 26.7 fold
- fold reduction in antagonism relative to 11 (cJun/TRE DNA interaction; ratio of CD IC50): 14.8 fold
- Tm (° C.) (cJun bZIP): 44.8 ± 1.2 °C

Compound: RIKAERKRMRNRIAASKCRKRKLERIARLEEKVKTLKAQNYELASTANMLREQVAQLGAP [cJun]
- Fraction helicity at 20° C. (CD) ([1]; peptide alone): 14.0%
- Tm (° C.) (CD) ([1]; peptide alone (homodimer)): 39.8 °C

Compound: CC[C@H](C)[C@H](NC(=O)[C@H](CCC(=O)O)NC(=O)[C@H](CCCCN)NC(=O)[C@H](CCCNC(=N)N)NC(=O)[C@H](CC(C)C)NC(=O)[C@H](C)NC(=O)[C@H](Cc1ccc(O)cc1)NC(=O)[C@H](CC(N)=O)NC(=O)[C@H](CCCNC(=N)N)NC(=O)[C@H](CCC(=O)O)NC(=O)[C@H](CCC(=O)O)NC(=O)[C@H](CC(C)C)NC(=O)[C@H](CCC(N)=O)NC(=O)[C@H](CCC(=O)O)NC(=O)[C@@H](NC(=O)[C@H](CCC(=O)O)NC(=O)[C@@H]1CC(=O)NCCCC[C@H](NC(=O)[C@H](CCC(=O)O)NC(=O)[C@H](CCC(=O)O)NC(=O)[C@@H](NC(=O)[C@@H](NC(=O)[C@H](CC(C)C)NC(=O)[C@H](CCC(=O)O)NC(=O)[C@H](CCC(=O)O)NC(=O)[C@H](C)NC(=O)[C@H](CCC(=O)O)NC(C)=O)C(C)C)C(C)C)C(=O)N[C@@H](C(C)C)C(=O)N[C@@H](CC(C)C)C(=O)N[C@@H](CCC(=O)O)C(=O)N1)[C@@H](C)CC)C(=O)N[C@@H](CCC(=O)O)C(=O)N[C@@H](CC(=O)O)C(=O)N[C@@H](CC(C)C)C(=O)N[C@@H](CCC(N)=O)C(=O)N[C@@H](CCCCN)C(=O)N[C@@H](CCC(N)=O)C(N)=O [Peptide 17] (Ac-EAEELVVEEKVLEDEIEQLEERNYALRKEIEDLQKQ-NH2; lactam 10-14)
- ΔG (cJun): -9.766 ± 0.0669 kcal/mol
- ΔH (cJun): -14.1 ± 0.402 kcal/mol
- −TΔS (cJun): 4.336 ± 0.406 kcal/mol
- Stoichiometry, n (cJun): 1.20 ± 0.02
- effect of lactamisation on antagonism (cJun/TRE DNA interaction; P=0.24): did not lead to a significant increase in antagonism
- Tm (° C.) (cJun bZIP): 64.0 ± 0.8 °C
- change in fraction helicity from lactamisation [1]: ~5%

Compound: Ac-EAEELVVEEDVLEEEIEQLEERNYALRKEIEDLQKQ-NH2 [Peptide 11]
- ΔG (cJun): -8.15 ± 0.098 kcal/mol
- ΔH (cJun): -5.989 ± 0.813 kcal/mol
- −TΔS (cJun): -2.14 ± 0.817 kcal/mol
- Stoichiometry, n (cJun): 0.95 ± 0.09
- fold reduction in antagonism relative to 4 (cJun/TRE DNA interaction; ratio of CD IC50): 1.8 fold
- Tm (° C.) (cJun bZIP): 57.1 ± 0.9 °C

Compound: Ac-LVVEEDVLEEEIEQLEERNYALRKEIEDLQKQLEKL-NH2 [Peptide 5]
- fold better antagonism than 6 (cJun/TRE DNA interaction; ratio of CD IC50): 1.7 fold
- fold reduction in antagonism relative to 3 (cJun/TRE DNA interaction; ratio of CD IC50): 2.3 fold
- fold reduction in antagonism relative to 4 (cJun/TRE DNA interaction; ratio of CD IC50): 1.7 fold
- fold reduction in cJun/TRE antagonism relative to 1 (cJun/TRE DNA interaction; ratio of CD IC50): 5.8 fold
- Tm (° C.) (cJun bZIP): 62.8 ± 1.0 °C

Compound: CC[C@H](C)[C@H](NC(=O)[C@H](CCC(=O)O)NC(=O)[C@H](CCCCN)NC(=O)[C@H](CCCNC(=N)N)NC(=O)[C@H](CC(C)C)NC(=O)[C@H](C)NC(=O)[C@H](Cc1ccc(O)cc1)NC(=O)[C@H](CC(N)=O)NC(=O)[C@H](CCCNC(=N)N)NC(=O)[C@H](CCC(=O)O)NC(=O)[C@H](CCC(=O)O)NC(=O)[C@H](CC(C)C)NC(=O)[C@H](CCC(N)=O)NC(=O)[C@H](CCC(=O)O)NC(=O)[C@@H](NC(=O)[C@H](CCC(=O)O)NC(=O)[C@H](CCC(=O)O)NC(=O)[C@H](CCC(=O)O)NC(=O)[C@H](CC(C)C)NC(=O)[C@@H](NC(=O)[C@H](CC(=O)O)NC(=O)[C@H](CCC(=O)O)NC(=O)[C@H](CCC(=O)O)NC(=O)[C@@H](NC(=O)[C@@H](NC(=O)[C@H](CC(C)C)NC(=O)[C@@H]1CC(=O)NCCCC[C@H](NC(C)=O)C(=O)N[C@@H](CCC(=O)O)C(=O)N[C@@H](C)C(=O)N[C@@H](CCC(=O)O)C(=O)N1)C(C)C)C(C)C)C(C)C)[C@@H](C)CC)C(=O)N[C@@H](CCCCN)C(=O)N[C@@H](CC(=O)O)C(=O)N[C@@H](CC(C)C)C(=O)N[C@@H](CCC(N)=O)C(=O)N[C@@H](CC(=O)O)C(=O)N[C@@H](CCC(N)=O)C(N)=O [Peptide 13] (Ac-KEAEDLVVEEDVLEEEIEQLEERNYALRKEIKDLQDQ-NH2; lactam 1-5)
- Tm (° C.) (cJun bZIP): 58.5 ± 1.0 °C
- change in fraction helicity from lactamisation [1]: ~1%

Compound: Ac-EDVLEEEIEQLEERNYALRKEIEDLQKQLEKLGAP-NH2 [Peptide 6]
- fold reduction in antagonism relative to 5 (cJun/TRE DNA interaction; ratio of CD IC50): 1.7 fold
- fold reduction in cJun/TRE antagonism relative to 1 (cJun/TRE DNA interaction; ratio of CD IC50): 9.7 fold
- Tm (° C.) (cJun bZIP): 55.1 ± 1.1 °C

Compound: Ac-LARENEELEKEAEELVVEEDVLEEEIEQLEERNYALRKEIEDLQKQLEKL-NH2 [Peptide 2]
- fold more effective antagonism than 10 (cJun/TRE DNA interaction; ratio of CD IC50): 4 fold
- fold reduction in cJun/TRE antagonism relative to 1 (cJun/TRE DNA interaction; ratio of CD IC50): 1.2 fold
- Tm (° C.) (cJun bZIP): 68.5 ± 1.1 °C
